This note sets out measurements from patent publication US20260146046A1, “BICYCLIC FERROPORTIN INHIBITORS” (Vifor (International) AG, priority 2022, published 2026).

The target of this experiment is T1, ferroportin (Fpn) (Mus musculus, UniProt Q9JHI9).
T1 construct: endogenous in cells; host or cells: J774 mouse macrophage cell line, induced with Fe(III)NTA
T1 sequence (Q9JHI9 1-570): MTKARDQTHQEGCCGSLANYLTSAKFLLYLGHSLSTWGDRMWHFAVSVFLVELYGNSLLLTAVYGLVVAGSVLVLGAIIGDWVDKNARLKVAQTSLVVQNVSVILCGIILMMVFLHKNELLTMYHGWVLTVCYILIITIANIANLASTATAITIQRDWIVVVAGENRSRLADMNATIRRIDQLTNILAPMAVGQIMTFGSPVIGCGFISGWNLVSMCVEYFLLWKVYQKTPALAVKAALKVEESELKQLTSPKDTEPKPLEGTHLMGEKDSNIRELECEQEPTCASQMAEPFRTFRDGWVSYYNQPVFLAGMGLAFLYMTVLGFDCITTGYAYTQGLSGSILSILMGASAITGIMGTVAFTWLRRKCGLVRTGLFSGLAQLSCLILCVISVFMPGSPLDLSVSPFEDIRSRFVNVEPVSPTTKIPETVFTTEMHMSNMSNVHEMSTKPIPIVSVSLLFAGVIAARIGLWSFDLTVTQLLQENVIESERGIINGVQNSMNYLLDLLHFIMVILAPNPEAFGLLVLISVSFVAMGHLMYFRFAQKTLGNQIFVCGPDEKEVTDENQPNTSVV
Nature of the experiment: Hepcidin Internalization Assay (J774). Format: cell-based. The note with it: J774 cells, 25 nM TMR-hepcidin, 2 hours; average of multiple measurements; read-out: Average (AVE) IC50 of Fpn inhibitors in the hepcidin internalization assay. An excerpt:
This cellular assay allows quantification of the binding of hepcidin to ferroportin (Fpn) through microscopic detection of internalization of a fluorescently labeled hepcidin into J774 cells. […] Binding of hepcidin to Fpn triggers internalization and degradation of both hepcidin and Fpn. […] Therefore, microscopic detection of cell-associated TMR fluorescence is a measure of hepcidin binding to Fpn and internalization of hepcidin and Fpn. If TMR-hepcidin is prevented from binding to Fpn, cellular TMR fluorescence remains low (Durrenberger et al, 2013). The effect of small molecular weight Fpn inhibitor compounds in this assay was evaluated in vitro as described below. […] Cat. 655090) and grown at 37° C. with 5% CO2. After overnight incubation, cells were washed 3 times with pre-warmed DMEM w/o phenol red, 30 μl/well of DMEM w/o phenol red was added after the final wash and 10 μl/well of dilution series of test compounds were added in triplicates. […] Cells were incubated in a total volume of 50 μl at 37° C. with 5% CO2 for 2 hours, then Hoechst 33342 dye was added to a final concentration of 0.5 μg/ml to stain nuclei and further incubated for 10 min. at 37° C. with 5% CO2. […] After removal of the paraformaldehyde solution, cells were washed 3 times with PBS leaving 100 μl per well and the plates were sealed with foil plate seal. […] The acquired image data was analysed with the […] analysis software. […] IC50 values were calculated with the Sum(Mean) raw data using “log(inhibitor) vs. response” curve fitting of Prism 5 software (GraphPad Software Inc., version 5.02). For each data set the fit of the “log(inhibitor) vs. response (three parameters)” model was compared to the fit of the “log(inhibitor) vs. response-Variable slope (four parameters)” model and the IC50 data of the preferred model was used.

For orientation: IC50 means the concentration at which inhibition is half-maximal. With `COCCn1c(CCNCCc2nc3c(NCc4ncccc4F)nccc3o2)nc2ccccc21` [Example Compound No. 1, N-((3-fluoropyridin-2-yl)methyl)-2-(2-((2-(1-(2-methoxyethyl)-1H-benzo[d]imidazol-2-yl)ethyl)amino)ethyl)oxazolo[4,5-c]pyridin-4-amine], the 50% inhibitory concentration (IC50) worked out at 9 nM. As for `Fc1cccnc1CNc1nccc2oc(CCNCCc3nc4ccccc4n3CC3CC3)nc12` [Example Compound No. 2, 2-(2-((2-(1-(cyclopropylmethyl)-1H-benzo[d]imidazol-2-yl)ethyl)amino)ethyl)-N-((3-fluoropyridin-2-yl)methyl)oxazolo[4,5-c]pyridin-4-amine], the half-inhibitory concentration (IC50) was found to be 15 nM. Then `COCCOCCn1c(CCNCCc2nc3c(NCc4ncccc4F)nccc3o2)nc2ccccc21` [Example Compound No. 3, N-((3-fluoropyridin-2-yl)methyl)-2-(2-((2-(1-(2-(2-methoxyethoxy)ethyl)-1H-benzo[d]imidazol-2-yl)ethyl)amino)ethyl)oxazolo[4,5-c]pyridin-4-amine], with 9 nM. Then `CC(C)OCCn1c(CCNCCc2nc3c(NCc4ncccc4F)nccc3o2)nc2ccccc21` [Example Compound No. 4, N-((3-fluoropyridin-2-yl)methyl)-2-(2-((2-(1-(2-isopropoxyethyl)-1H-benzo[d]imidazol-2-yl)ethyl)amino)ethyl)oxazolo[4,5-c]pyridin-4-amine], with 4 nM. Then `COCCn1c(CCN2CC(c3nc4c(NCc5ncccc5F)nccc4o3)C2)nc2ccccc21` [Example Compound No. 5, N-((3-fluoropyridin-2-yl)methyl)-2-(1-(2-(1-(2-methoxyethyl)-1H-benzo[d]imidazol-2-yl)ethyl)azetidin-3-yl)oxazolo[4,5-c]pyridin-4-amine], with 7 nM. Consider `COCCOCCn1c(CCN2CC(c3nc4c(NCc5ncccc5F)nccc4o3)C2)nc2ccccc21` [Example Compound No. 6, N-((3-fluoropyridin-2-yl)methyl)-2-(1-(2-(1-(2-(2-methoxyethoxy)ethyl)-1H-benzo[d]imidazol-2-yl)ethyl)azetidin-3-yl)oxazolo[4,5-c]pyridin-4-amine], for which the IC50 is 11 nM. As to `COCCn1c(CCNCCc2nc3c(NCc4ncccc4F)nccc3o2)nc2cc3c(cc21)OCCO3` [Example Compound No. 7, N-((3-fluoropyridin-2-yl)methyl)-2-(2-((2-(1-(2-methoxyethyl)-6,7-dihydro-1H-[1,4]dioxino-[2′,3′:4,5]benzo[1,2-d]imidazol-2-yl)ethyl)amino)ethyl)oxazolo[4,5-c]pyridin-4-amine], the half-maximal inhibitory concentration (IC50) worked out at 83 nM. Then `Fc1cccnc1CNc1nccc2oc(CCNCCc3nc4ccccc4n3CCN3CCOCC3)nc12` [Example Compound No. 8, N-((3-fluoropyridin-2-yl)methyl)-2-(2-((2-(1-(2-morpholinoethyl)-1H-benzo[d]imidazol-2-yl)ethyl)amino)ethyl)oxazolo[4,5-c]pyridin-4-amine], with 7 nM; and `Fc1cccnc1CNc1nccc2oc(CCNCCc3nc4cc5c(cc4n3CCN3CCOCC3)OCCO5)nc12` [Example Compound No. 9, N-((3-fluoropyridin-2-yl)methyl)-2-(2-((2-(1-(2-morpholinoethyl)-6,7-dihydro-1H-[1,4]dioxino[2′,3′:4,5]benzo[1,2-d]imidazol-2-yl)ethyl)amino)ethyl)oxazolo[4,5-c]pyridin-4-amine], with 827 nM; and `Fc1cccnc1CNc1nccc2oc(CCNCCc3nc4ccccc4n3Cc3ccccc3)nc12` [Example Compound No. 10, 2-(2-((2-(1-benzyl-1H-benzo[d]imidazol-2-yl)ethyl)amino)ethyl)-N-((3-fluoropyridin-2-yl)methyl)oxazolo[4,5-c]pyridin-4-amine], with 8 nM.

`COc1cccc(Cn2c(CCNCCc3nc4c(NCc5ncccc5F)nccc4o3)nc3ccccc32)c1` [Example Compound No. 11, N-((3-fluoropyridin-2-yl)methyl)-2-(2-((2-(1-(3-methoxybenzyl)-1H-benzo[d]-imidazol-2-yl)ethyl)amino)ethyl)oxazolo[4,5-c]pyridin-4-amine]: the IC50 was 5 nM.

Consider `Fc1cccnc1CNc1nccc2oc(CCNCCc3nc4ccccc4n3Cc3cccc(Cl)c3)nc12` [Example Compound No. 12, 2-(2-((2-(1-(3-chlorobenzyl)-1H-benzo[d]imidazol-2-yl)ethyl)amino)ethyl)-N-((3-fluoropyridin-2-yl)methyl)oxazolo[4,5-c]pyridin-4-amine], for which the 50% inhibitory concentration (IC50) is 28 nM.

Regarding `Fc1cccnc1CNc1nccc2oc(CCNCCc3nc4cc5c(cc4n3CC3CC3)OCCO5)nc12` [Example Compound No. 13, 2-(2-((2-(1-(cyclopropylmethyl)-6,7-dihydro-1H-[1,4]dioxino[2′,3′:4,5]benzo[1,2-d]-imidazol-2-yl)ethyl)amino)ethyl)-N-((3-fluoropyridin-2-yl)methyl)oxazolo[4,5-c]pyridin-4-amine], the half-maximal inhibitory concentration (IC50) worked out at 5 nM. On to `CN(C)CCn1c(CCNCCc2nc3c(NCc4ncccc4F)nccc3o2)nc2cc3c(cc21)OCCO3` [Example Compound No. 14, 2-(2-((2-(1-(2-(dimethylamino)ethyl)-6,7-dihydro-1H-[1,4]dioxino[2′,3′:4,5]benzo[1,2-d]imidazol-2-yl)ethyl)amino)ethyl)-N-((3-fluoropyridin-2-yl)methyl)oxazolo[4,5-c]pyridin-4-amine], for which the IC50 stood at 810 nM. Next, `Fc1cccnc1CNc1nccc2oc(CCNCCc3nc4ccccc4n3Cc3ccccn3)nc12` [Example Compound No. 15, N-((3-fluoropyridin-2-yl)methyl)-2-(2-((2-(1-(pyridin-2-ylmethyl)-1H-benzo[d]imidazol-2-yl)ethyl)amino)ethyl)oxazolo[4,5-c]pyridin-4-amine]: 9500 nM; `Fc1cccnc1CNc1nccc2oc(CCNCCc3nc4ccccc4n3CCc3ccccc3)nc12` [Example Compound No. 16, N-((3-fluoropyridin-2-yl)methyl)-2-(2-((2-(1-phenethyl-1H-benzo[d]imidazol-2-yl)ethyl)amino)ethyl)oxazolo[4,5-c]pyridin-4-amine]: 40200 nM. For `Fc1cccnc1CNc1nccc2oc(CCNCCc3nc4ccccc4n3-c3ccccc3)nc12` [Example Compound No. 17, N-((3-fluoropyridin-2-yl)methyl)-2-(2-((2-(1-phenyl-1H-benzo[d]imidazol-2-yl)ethyl)amino)ethyl)oxazolo[4,5-c]pyridin-4-amine], the half-maximal inhibitory concentration (IC50) was 25 nM. Then `CN1CCN(CCn2c(CCNCCc3nc4c(NCc5ncccc5F)nccc4o3)nc3cc4c(cc32)OCCO4)CC1` [Example Compound No. 18, N-((3-fluoropyridin-2-yl)methyl)-2-(2-((2-(1-(2-(4-methylpiperazin-1-yl)ethyl)-6,7-dihydro-1H-[1,4]dioxino[2′,3′:4,5]benzo[1,2-d]imidazol-2-yl)ethyl)amino)ethyl)oxazolo[4,5-c]pyridin-4-amine], with 20000 nM; and `CCn1c(CCNCCc2nc3c(NCc4ncccc4F)nccc3o2)nc2ccccc21` [Example Compound No. 19, 2-(2-((2-(1-ethyl-1H-benzo[d]imidazol-2-yl)ethyl)amino)ethyl)-N-((3-fluoropyridin-2-yl)methyl)oxazolo[4,5-c]pyridin-4-amine], with 18 nM.
